Source: PubChem BioAssay AID248 (DTP/NCI, 2004)
Several values for one entry are separate records, joined by “and”; a condition that tells them apart may be missing. Equal entries are not always repeated. Inconclusive results and toxic doses are left out. Cut-off read from the data, not from the text of the source: active = T/C of 150% or more; inactive = T/C below 125%.

Test system: L1210 leukemia ip in BDF1 mice, survival T/C
Assay: NCI In Vivo Anticancer Drug Screen. Data for tumor model L1210 Leukemia (intraperitoneal) in B6D2F1 (BDF1) mice
Conditions: endpoint: mean survival time, higher = longer survival
In short: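 Value reflects the ratio of survival in compound-treated mice to survival in vehicle-treated controls, with both groups carrying the same transplanted tumor.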

[1] = dose: 100.0 mg/kg/injection, schedule: Q01DX001 (ip), vehicle: saline with Tween-80
[2] = dose: 100.0 mg/kg/injection, schedule: Q01DX009 (ip), vehicle: saline with Tween-80
[3] = dose: 100.0 mg/kg/injection, schedule: Q04DX002 (ip), vehicle: saline with Tween-80
[4] = dose: 100.0 mg/kg/injection, schedule: Q04DX003 (ip), vehicle: saline with Tween-80
[5] = dose: 200.0 mg/kg/injection, schedule: Q01DX001 (ip), vehicle: saline with Tween-80
[6] = dose: 200.0 mg/kg/injection, schedule: Q01DX009 (ip), vehicle: saline with Tween-80
[7] = dose: 200.0 mg/kg/injection, schedule: Q04DX003 (ip), vehicle: saline with Tween-80
[8] = dose: 400.0 mg/kg/injection, schedule: Q01DX001 (ip), vehicle: saline with Tween-80
[9] = dose: 400.0 mg/kg/injection, schedule: Q04DX003 (ip), vehicle: saline with Tween-80
[10] = dose: 100.0 mg/kg/injection, schedule: Q04DX003 (ip), vehicle: saline
[11] = dose: 200.0 mg/kg/injection, schedule: Q04DX003 (ip), vehicle: saline
[12] = dose: 400.0 mg/kg/injection, schedule: Q04DX003 (ip), vehicle: saline
[13] = dose: 100.0 mg/kg/injection, schedule: Q01DX001 (ip), vehicle: saline
[14] = dose: 200.0 mg/kg/injection, schedule: Q01DX001 (ip), vehicle: saline

Measured: T/C

CSc1ccc(NC(=O)Oc2cc3ccccc3cc2C(=O)Nc2ccccc2)cc1
inactive: dose: 50.0 mg/kg/injection, schedule: Q01DX009 (ip), vehicle: saline with Tween-80 97 % of control and 99 % of control | [1] 95 % of control | [2] 96 % of control and 86 % of control | [3] 100 % of control and 92 % of control | [4] 87 % of control | [5] 87 % of control | [6] 96 % of control and 90 % of control | dose: 200.0 mg/kg/injection, schedule: Q04DX002 (ip), vehicle: saline with Tween-80 98 % of control and 91 % of control | [7] 94 % of control | [8] 88 % of control | dose: 400.0 mg/kg/injection, schedule: Q04DX002 (ip), vehicle: saline with Tween-80 95 % of control | [9] 91 % of control

Cc1ccc(S(=O)(=O)Nc2ccc(-c3ccc(NS(=O)(=O)c4ccc(C)cc4)cc3)cc2)cc1
inactive: dose: 50.0 mg/kg/injection, schedule: Q04DX002 (ip), vehicle: saline with Tween-80 89 % of control | [3] 95 % of control

O=[N+]([O-])c1cccc(OCCCOc2ccc(S(=O)(=O)F)cc2)c1
inactive: [1] 96 % of control | [5] 98 % of control | [8] 90 % of control

CC(=O)NCCC(=O)O
inactive: [10] 95 % of control | [11] 101 % of control | [12] 95 % of control

CCCCNC(=NC)c1ccc(NC(=O)c2ccc(C(=O)Nc3ccc(C(=NC)NCCCC)cc3)cc2)cc1
inactive: dose: 4.4 mg/kg/injection, schedule: Q01DX Z (ip), vehicle: saline 112 % of control | dose: 6.6 mg/kg/injection, schedule: Q01DX Z (ip), vehicle: saline 120 % of control

COc1ccc(N=NS(=O)O)cc1
inactive: dose: 100.0 mg/kg/injection, schedule: Q01DX001 (ip), vehicle: Klucel (hydroxypropylcellulose) (HPC) 98 % of control | dose: 200.0 mg/kg/injection, schedule: Q01DX001 (ip), vehicle: Klucel (hydroxypropylcellulose) (HPC) 97 % of control | dose: 400.0 mg/kg/injection, schedule: Q01DX001 (ip), vehicle: Klucel (hydroxypropylcellulose) (HPC) 95 % of control

O=C(OCc1ccccc1)c1cc(I)c(OCc2ccccc2)c(I)c1
inactive: [13] 98 % of control | [14] 98 % of control | dose: 400.0 mg/kg/injection, schedule: Q01DX001 (ip), vehicle: saline 98 % of control

CCC1(CC)C2=CCC3C(CCC4(C)C(C(C)CCCC(C)C)CCC34)C2(C)CCC1OC(C)=O (stereo unspecified)
inactive: dose: 50.0 mg/kg/injection, schedule: Q01DX009 (sc), vehicle: steriod suspending solution 90 % of control | dose: 100.0 mg/kg/injection, schedule: Q01DX009 (sc), vehicle: steriod suspending solution 87 % of control | dose: 100.0 mg/kg/injection, schedule: Q04DX003 (sc), vehicle: steriod suspending solution 107 % of control | dose: 200.0 mg/kg/injection, schedule: Q01DX009 (sc), vehicle: steriod suspending solution 100 % of control | dose: 200.0 mg/kg/injection, schedule: Q04DX003 (sc), vehicle: steriod suspending solution 86 % of control | dose: 400.0 mg/kg/injection, schedule: Q04DX003 (sc), vehicle: steriod suspending solution 96 % of control

O=c1oc2ccccc2c(Cl)c1Cl
inactive: dose: 10.0 mg/kg/injection, schedule: Q01DX001 (ip), vehicle: saline 109 % of control

CN(CCOS(=O)(=O)O)CCOS(=O)(=O)O
inactive: dose: 37.5 mg/kg/injection, schedule: Q01DX009 (ip), vehicle: saline 98 % of control | dose: 75.0 mg/kg/injection, schedule: Q01DX009 (ip), vehicle: saline 98 % of control | dose: 75.0 mg/kg/injection, schedule: Q04DX003 (ip), vehicle: saline 102 % of control | dose: 150.0 mg/kg/injection, schedule: Q01DX009 (ip), vehicle: saline 95 % of control | dose: 150.0 mg/kg/injection, schedule: Q04DX003 (ip), vehicle: saline 100 % of control | dose: 300.0 mg/kg/injection, schedule: Q04DX003 (ip), vehicle: saline 96 % of control

O=C(C1C2CCC(CC2)C1C(=O)N1CCOCC1)N1CCOCC1 (stereo unspecified)
inactive: [10] 100 % of control | [11] 100 % of control | [12] 103 % of control

C=CCC(C#N)(C(=O)OCC)/C(C)=C/C (stereo unspecified)
inactive: dose: 75.0 mg/kg/injection, schedule: Q01DX001 (ip), vehicle: other 100 % of control | dose: 150.0 mg/kg/injection, schedule: Q01DX001 (ip), vehicle: other 103 % of control | dose: 300.0 mg/kg/injection, schedule: Q01DX001 (ip), vehicle: other 97 % of control

CN=C(Nc1ccccc1C)SC
inactive: dose: 50.0 mg/kg/injection, schedule: Q04DX003 (ip), vehicle: saline 100 % of control | [13] 98 % of control | [10] 100 % of control | [14] 102 % of control | [11] 106 % of control

[Cl][Pt+2][Cl].c1ccc(C2CC[N-]CC2)cc1.c1ccc(C2CC[N-]CC2)cc1
inactive: dose: 6.25 mg/kg/injection, schedule: Q04DX003 (ip), vehicle: water 100 % of control | dose: 12.5 mg/kg/injection, schedule: Q04DX003 (ip), vehicle: water 100 % of control | dose: 25.0 mg/kg/injection, schedule: Q04DX003 (ip), vehicle: water 105 % of control | dose: 50.0 mg/kg/injection, schedule: Q04DX003 (ip), vehicle: water 102 % of control

CCOc1ccccc1NC(=O)Nc1ccccc1
inactive: dose: 100.0 mg/kg/injection, schedule: Q01DX009 (ip), vehicle: Klucel (hydroxypropylcellulose) (HPC) 92 % of control | dose: 100.0 mg/kg/injection, schedule: Q04DX003 (ip), vehicle: Klucel (hydroxypropylcellulose) (HPC) 95 % of control | dose: 200.0 mg/kg/injection, schedule: Q01DX009 (ip), vehicle: Klucel (hydroxypropylcellulose) (HPC) 96 % of control | dose: 200.0 mg/kg/injection, schedule: Q04DX003 (ip), vehicle: Klucel (hydroxypropylcellulose) (HPC) 109 % of control | dose: 400.0 mg/kg/injection, schedule: Q01DX009 (ip), vehicle: Klucel (hydroxypropylcellulose) (HPC) 91 % of control | dose: 400.0 mg/kg/injection, schedule: Q04DX003 (ip), vehicle: Klucel (hydroxypropylcellulose) (HPC) 98 % of control

N=C(N=C(N)N)N1CCOCC1
inactive: [2] 101 % of control | [4] 105 % of control | [6] 98 % of control | [7] 112 % of control | dose: 400.0 mg/kg/injection, schedule: Q01DX009 (ip), vehicle: saline with Tween-80 103 % of control | [9] 104 % of control

OCCN1C(c2ccccc2)C1c1ccccc1 (stereo unspecified)
inactive: [4] 102 % of control | [7] 93 % of control | [9] 97 % of control
